Consider 21 molecules from patent US11708348B2, “Protease inhibitors for treatment of coronavirus infections” (The Scripps Research Institute, priority 2021, dated 2023).

For orientation: EC50 means the midpoint of the concentration-response curve.

The subject of one assay is SARS-CoV-2 strain USA-WA1/2020. The experiment in a line: microbe, parasite or virus in culture. It is filed as cell-based. Conditions: Severe acute respiratory syndrome coronavirus 2, HeLa-ACE2, 24 h, HeLa-ACE2 cells, SARS-CoV-2 infection, 24 h; class symbols; read-out: EC50, uM (Hela).
With `CC(C)C[C@H](NC(=O)C(=O)N[C@H]1CCCOC1)C(=O)N[C@@H](C[C@@H]1CCNC1=O)C(=O)COc1c(F)c(F)cc(F)c1F` [Compound 103, N1-((S)-4-methyl-1-oxo-1-(((S)-3-oxo-1-((S)-2-oxopyrrolidin-3-yl)-4-(2,3,5,6-tetrafluorophenoxy)butan-2-yl)amino)pentan-2-yl)-N2-((S)-tetrahydro-2H-pyran-3-yl)oxalamide], the 50% effective concentration (EC50) lay in the range of 0.05 to 0.2 µM.

For `COC[C@@H](Nc1ccccc1F)C(=O)N[C@@H](CC(C)C)C(=O)N[C@@H](C[C@@H]1CCNC1=O)C(=O)COC(F)(F)F` [Compound 235, (S)-2-((R)-2-((2-fluorophenyl)amino)-3-methoxypropanamido)-4-methyl-N-((S)-3-oxo-1-((S)-2-oxopyrrolidin-3-yl)-4-(trifluoromethoxy)butan-2-yl)pentanamide], the EC50 was below 0.05 µM.

As to `CC(C)(C)NC(=O)O[C@@H](C(=O)N1CC2(CC2)C[C@H]1C(=O)N[C@@H](C[C@@H]1CCNC1=O)C(=O)COC(F)(F)F)C(C)(C)C` [Compound 327, (R)-3,3-dimethyl-1-oxo-1-((S)-6-(((S)-3-oxo-1-((S)-2-oxopyrrolidin-3-yl)-4-(trifluoromethoxy)butan-2-yl)carbamoyl)-5-azaspiro[2.4]heptan-5-yl)butan-2-yl tert-butylcarbamate], the EC50 was in the range of 0.5 to 1 µM.

For `CC(C)C[C@H](NC(=O)c1cc(-c2ccccc2)on1)C(=O)N[C@@H](C[C@@H]1CCNC1=O)C(=O)COc1c(F)c(F)cc(F)c1F` [Compound 70, N-((S)-4-methyl-1-oxo-1-(((S)-3-oxo-1-((S)-2-oxopyrrolidin-3-yl)-4-(2,3,5,6-tetrafluoro-phenoxy)butan-2-yl)amino)pentan-2-yl)-5-phenylisoxazole-3-carboxamide], the EC50 is 0.2 to 0.5 µM.

Turning to `CC[C@@H]1C[C@]1(NC(=O)c1cc2cc(F)ccc2[nH]1)C(=O)N[C@@H](C[C@@H]1CCNC1=O)C(=O)COC(F)(F)F` [Compound 261, N-((1R,2R)-2-ethyl-1-(((S)-3-oxo-1-((S)-2-oxopyrrolidin-3-yl)-4-(trifluoromethoxy)butan-2-yl)carbamoyl)cyclopropyl)-5-fluoro-1H-indole-2-carboxamide], the half-maximal effective concentration (EC50) is 0.5 to 1 µM.

As for `COC[C@H](Nc1ccccc1F)C(=O)N[C@@H](CC(C)C)C(=O)N[C@@H](C[C@@H]1CCNC1=O)C(=O)COC(F)(F)F` [Compound 236, (S)-2-((S)-2-((2-fluorophenyl)amino)-3-methoxypropanamido)-4-methyl-N-((S)-3-oxo-1-((S)-2-oxopyrrolidin-3-yl)-4-(trifluoromethoxy)butan-2-yl)pentanamide], the EC50 is below 0.05 µM.

As for `CC(C)(C)C[C@H](NC(=O)C(=O)Nc1ccccc1F)C(=O)N[C@@H](C[C@@H]1CCNC1=O)C(=O)COc1c(F)c(F)cc(F)c1F` [Compound 130, N1-((S)-4,4-dimethyl-1-oxo-1-(((S)-3-oxo-1-((S)-2-oxopyrrolidin-3-yl)-4-(2,3,5,6-tetrafluorophenoxy)butan-2-yl)amino)pentan-2-yl)-N2-(2-fluorophenyl)oxalamide], the EC50 is below 0.05 µM.

For `CC[C@@H](C)[C@@H](O)C(=O)N1C[C@@H]2CCC[C@@H]2[C@H]1C(=O)N[C@@H](C[C@@H]1CCNC1=O)C(=O)COC(F)(F)F` [Compound 379, (1S,3aR,6aS)-2-((2R,3R)-2-hydroxy-3-methylpentanoyl)-N-((S)-3-oxo-1-((S)-2-oxopyrrolidin-3-yl)-4-(trifluoromethoxy)butan-2-yl)octahydrocyclo-penta[c]pyrrole-1-carboxamide], the concentration giving a half-maximal response (EC50) was below 0.05 µM.

Turning to `CC(C)C[C@H](NC(=O)C(=O)Nc1cccc(F)c1)C(=O)N[C@@H](C[C@@H]1CCNC1=O)C(=O)COc1c(F)c(F)cc(F)c1F` [Compound 43, N1-(3-fluorophenyl)-N2-((S)-4-methyl-1-oxo-1-(((S)-3-oxo-1-((S)-2-oxopyrrolidin-3-yl)-4-(2,3,5,6-tetrafluorophenoxy)butan-2-yl)amino)pentan-2-yl)oxalamide], the EC50 was in the range of 0.05 to 0.2 µM.

With `O=C1NCC[C@H]1C[C@H](NC(=O)[C@@H]1CC2(CC2)CN1C(=O)[C@H](O)C(F)(F)F)C(=O)COC(F)(F)F` [Compound 385, (S)-N-((S)-3-oxo-1-((S)-2-oxopyrrolidin-3-yl)-4-(trifluoromethoxy)butan-2-yl)-5-((S)-3,3,3-trifluoro-2-hydroxypropanoyl)-5-azaspiro[2.4]heptane-6-carboxamide], the half-maximal effective concentration (EC50) is 0.05 to 0.2 µM.

The assay is the same for the next values; noted with them: Severe acute respiratory syndrome coronavirus 2, HeLa-ACE2, 24 h, HeLa-ACE2 cells, SARS-CoV-2 infection, 24 h; given as bound; read-out: EC50, uM (Hela).
Take `CC(C)(C)NC(=O)C(=O)N1CC2(COC2)C[C@H]1C(=O)N[C@@H](C[C@@H]1CCNC1=O)C(=O)COC(F)(F)F` [Compound 515, (S)-6-(2-(tert-butylamino)-2-oxoacetyl)-N-((S)-3-oxo-1-((S)-2-oxopyrrolidin-3-yl)-4-(trifluoromethoxy)butan-2-yl)-2-oxa-6-azaspiro[3.4]octane-7-carboxamide]: the EC50 was above 1 µM.

The assay is the same for the next values; noted with them: Severe acute respiratory syndrome coronavirus 2, HeLa-ACE2, 24 h, HeLa-ACE2 cells, SARS-CoV-2 infection, 24 h; read-out: EC50, uM (Hela).
In the case of `O=C(NC1(C(F)(F)F)CC1)C(=O)N1C[C@@H]2CCC[C@@H]2[C@H]1C(=O)N[C@@H](C[C@@H]1CCNC1=O)C(=O)COC(F)(F)F` [Compound 656, (1S,3aR,6aS)-N-((S)-3-oxo-1-((S)-2-oxopyrrolidin-3-yl)-4-(trifluoromethoxy)butan-2-yl)-2-(2-oxo-2-((1-(trifluoromethyl)cyclopropyl)amino)-acetyl)octahydrocyclopenta[c]pyrrole-1-carboxamide], the concentration for a half-maximal effect (EC50) was in the range of 0.05 to 0.2 µM.

`O=C1NCC[C@H]1C[C@H](NC(=O)[C@@H]1[C@H]2CCC[C@H]2CN1C(=O)c1cc(C(F)F)on1)C(=O)COC(F)(F)F` [Compound 500, (1S,3aR,6aS)-2-(5-(difluoromethyl)-isoxazole-3-carbonyl)-N-((S)-3-oxo-1-((S)-2-oxopyrrolidin-3-yl)-4-(trifluoromethoxy)butan-2-yl)octahydrocyclo-penta[c]pyrrole-1-carboxamide]: the EC50 was below 0.05 µM.

In the case of `CC[C@@H](OC(F)(F)F)C(=O)N1CC2(CC2)C[C@H]1C(=O)N[C@@H](C[C@@H]1CCNC1=O)C(=O)COC(F)(F)F` [Compound 716, (S)-N-((S)-3-oxo-1-((S)-2-oxopyrrolidin-3-yl)-4-(trifluoromethoxy)butan-2-yl)-5-((R)-2-(trifluoromethoxy)butanoyl)-5-azaspiro[2.4]heptane-6-carboxamide], the EC50 fell in the range of 0.05 to 0.2 µM.

With `Cn1ccc(C(=O)N2C[C@@H]3CCC[C@@H]3[C@H]2C(=O)N[C@@H](C[C@@H]2CCNC2=O)C(=O)COC(F)(F)F)n1` [Compound 533, (1S,3aR,6aS)-2-(1-methyl-1H-pyrazole-3-carbonyl)-N-((S)-3-oxo-1-((S)-2-oxopyrrolidin-3-yl)-4-(trifluoromethoxy)butan-2-yl)octahydrocyclo-penta[c]pyrrole-1-carboxamide], the 50% effective concentration (EC50) fell in the range of 0.5 to 1 µM.

Regarding `CC1(C)[C@@H]2[C@@H](C(=O)N[C@@H](C[C@@H]3CCNC3=O)C(=O)COC(F)(F)F)N(C(=O)C(=O)NCC(F)F)C[C@@H]21` [Compound 516, (1R,2S,5S)-3-(2-((2,2-difluoroethyl)amino)-2-oxoacetyl)-6,6-dimethyl-N-((S)-3-oxo-1-((S)-2-oxopyrrolidin-3-yl)-4-(trifluoromethoxy)butan-2-yl)-3-azabicyclo-[3.1.0]hexane-2-carboxamide], the concentration for a half-maximal effect (EC50) fell in the range of 0.05 to 0.2 µM.

As to `O=C1NCC[C@H]1C[C@H](NC(=O)[C@@H]1CC2(CC2)CN1C(=O)[C@@H](O)c1ccccc1)C(=O)COC(F)(F)F` [Compound 415, (S)-5-((S)-2-hydroxy-2-phenylacetyl)-N-((S)-3-oxo-1-((S)-2-oxopyrrolidin-3-yl)-4-(trifluoromethoxy)butan-2-yl)-5-azaspiro[2.4]heptane-6-carboxamide], the EC50 fell in the range of 0.05 to 0.2 µM.

As to `CC(C)(C)C[C@H](NC(=O)C(=O)Nc1cccc(C(F)(F)F)n1)C(=O)N[C@@H](C[C@@H]1CCCNC1=O)C(=O)CO` [Compound 742, N1-((S)-1-(((S)-4-hydroxy-3-oxo-1-((S)-2-oxopiperidin-3-yl)butan-2-yl)amino)-4,4-dimethyl-1-oxopentan-2-yl)-N2-(6-(trifluoromethyl)pyridin-2-yl)oxalamide], the EC50 lay within 0.2 to 0.5 µM.

As to `CC(C)(C)NC(=O)C(=O)N1C[C@@H]2CCC[C@@H]2[C@H]1C(=O)N[C@@H](Cc1ccc[nH]c1=O)C(=O)COC(F)(F)F` [Compound 574, (1S,3aR,6aS)-2-(2-(tert-butylamino)-2-oxoacetyl)-N-((S)-3-oxo-1-(2-oxo-1,2-dihydropyridin-3-yl)-4-(trifluoromethoxy)butan-2-yl)octahydrocyclo-penta[c]pyrrole-1-carboxamide], the 50% effective concentration (EC50) is 0.5 to 1 µM.

For `[2H]C([2H])([2H])C([2H])(C([2H])([2H])[2H])C([2H])([2H])C([2H])([2H])C(=O)N1CC2(CC2)C[C@H]1C(=O)N[C@@H](C[C@@H]1CCNC1=O)C(=O)COC(F)(F)F` [Compound 734, (S)-5-(4-(methyl-d3)pentanoyl-2,2,3,3,4,5,5,5-d8)-N-((S)-3-oxo-1-((S)-2-oxopyrrolidin-3-yl)-4-(trifluoromethoxy)butan-2-yl)-5-azaspiro[2.4]heptane-6-carboxamide], the 50% effective concentration (EC50) was below 0.05 µM.

Still in this assay, the particulars now being: Severe acute respiratory syndrome coronavirus 2, HeLa-ACE2, 24 h; read-out: EC50, uM (Hela).
For `O=C1NCC[C@H]1C[C@H](NC(=O)[C@@H]1CC2(CC2)CN1C(=O)C1(NC(=O)C(F)(F)F)CCC(F)(F)CC1)C(=O)COC(F)(F)F` [Compound 680, (S)-5-(4,4-difluoro-1-(2,2,2-trifluoroacetamido)cyclohexane-1-carbonyl)-N-((S)-3-oxo-1-((S)-2-oxopyrrolidin-3-yl)-4-(trifluoromethoxy)butan-2-yl)-5-azaspiro[2.4]heptane-6-carboxamide], the EC50 was 0.2 to 0.5 µM.
